Where a SMILES comes first, the peptide text is derived from it. Bridges are numbered along the chain shown (N, C = ends).

The text below walks through data of article PMC9116130 (Biochemical pharmacology, 2020).

Assay [1] has as its target rNaV1.4 (Rattus norvegicus, UniProt P15390). Kind of assay: Two-electrode voltage-clamp on Xenopus laevis oocytes expressing NaV1.4. Conditions: for inhibition at 100 µM: read-out: Maximum % inhibition NaV1.4, peptide at 100 μM; for Maximum % inhibition NaV1.4: peptide at 100 μM, 100 µM.
In assay [2] the target is hNaV1.5 (Homo sapiens, UniProt Q14524). Kind of assay: Two-electrode voltage-clamp on Xenopus laevis oocytes expressing NaV1.5. The conditions noted are these: for inhibition at 100 µM: read-out: Maximum % inhibition NaV1.5.
In assay [3] the target is mNaV1.6 (Mus musculus, UniProt Q9WTU3). Kind of assay: Two-electrode voltage-clamp on Xenopus laevis oocytes expressing NaV1.6. The conditions noted are these: for inhibition at 100 µM: read-out: Maximum % inhibition NaV1.6, peptide at 100 μM.
Assay [4] concerns the target rNaV1.8 (Rattus norvegicus, UniProt Q62968). Briefly: Two-electrode voltage-clamp on Xenopus laevis oocytes expressing NaV1.8. The conditions noted are these: for inhibition at 100 µM: read-out: Maximum % inhibition NaV1.8.
Assay [5] addresses rNaV1.2 (Rattus norvegicus, UniProt P04775). Kind of assay: Two-electrode voltage-clamp on Xenopus laevis oocytes expressing NaV1.2. The conditions noted are these: for inhibition at 100 µM: read-out: Maximum % inhibition NaV1.2, peptide at 100 μM.

Chain of rNaV1.4 (P15390 whole entry): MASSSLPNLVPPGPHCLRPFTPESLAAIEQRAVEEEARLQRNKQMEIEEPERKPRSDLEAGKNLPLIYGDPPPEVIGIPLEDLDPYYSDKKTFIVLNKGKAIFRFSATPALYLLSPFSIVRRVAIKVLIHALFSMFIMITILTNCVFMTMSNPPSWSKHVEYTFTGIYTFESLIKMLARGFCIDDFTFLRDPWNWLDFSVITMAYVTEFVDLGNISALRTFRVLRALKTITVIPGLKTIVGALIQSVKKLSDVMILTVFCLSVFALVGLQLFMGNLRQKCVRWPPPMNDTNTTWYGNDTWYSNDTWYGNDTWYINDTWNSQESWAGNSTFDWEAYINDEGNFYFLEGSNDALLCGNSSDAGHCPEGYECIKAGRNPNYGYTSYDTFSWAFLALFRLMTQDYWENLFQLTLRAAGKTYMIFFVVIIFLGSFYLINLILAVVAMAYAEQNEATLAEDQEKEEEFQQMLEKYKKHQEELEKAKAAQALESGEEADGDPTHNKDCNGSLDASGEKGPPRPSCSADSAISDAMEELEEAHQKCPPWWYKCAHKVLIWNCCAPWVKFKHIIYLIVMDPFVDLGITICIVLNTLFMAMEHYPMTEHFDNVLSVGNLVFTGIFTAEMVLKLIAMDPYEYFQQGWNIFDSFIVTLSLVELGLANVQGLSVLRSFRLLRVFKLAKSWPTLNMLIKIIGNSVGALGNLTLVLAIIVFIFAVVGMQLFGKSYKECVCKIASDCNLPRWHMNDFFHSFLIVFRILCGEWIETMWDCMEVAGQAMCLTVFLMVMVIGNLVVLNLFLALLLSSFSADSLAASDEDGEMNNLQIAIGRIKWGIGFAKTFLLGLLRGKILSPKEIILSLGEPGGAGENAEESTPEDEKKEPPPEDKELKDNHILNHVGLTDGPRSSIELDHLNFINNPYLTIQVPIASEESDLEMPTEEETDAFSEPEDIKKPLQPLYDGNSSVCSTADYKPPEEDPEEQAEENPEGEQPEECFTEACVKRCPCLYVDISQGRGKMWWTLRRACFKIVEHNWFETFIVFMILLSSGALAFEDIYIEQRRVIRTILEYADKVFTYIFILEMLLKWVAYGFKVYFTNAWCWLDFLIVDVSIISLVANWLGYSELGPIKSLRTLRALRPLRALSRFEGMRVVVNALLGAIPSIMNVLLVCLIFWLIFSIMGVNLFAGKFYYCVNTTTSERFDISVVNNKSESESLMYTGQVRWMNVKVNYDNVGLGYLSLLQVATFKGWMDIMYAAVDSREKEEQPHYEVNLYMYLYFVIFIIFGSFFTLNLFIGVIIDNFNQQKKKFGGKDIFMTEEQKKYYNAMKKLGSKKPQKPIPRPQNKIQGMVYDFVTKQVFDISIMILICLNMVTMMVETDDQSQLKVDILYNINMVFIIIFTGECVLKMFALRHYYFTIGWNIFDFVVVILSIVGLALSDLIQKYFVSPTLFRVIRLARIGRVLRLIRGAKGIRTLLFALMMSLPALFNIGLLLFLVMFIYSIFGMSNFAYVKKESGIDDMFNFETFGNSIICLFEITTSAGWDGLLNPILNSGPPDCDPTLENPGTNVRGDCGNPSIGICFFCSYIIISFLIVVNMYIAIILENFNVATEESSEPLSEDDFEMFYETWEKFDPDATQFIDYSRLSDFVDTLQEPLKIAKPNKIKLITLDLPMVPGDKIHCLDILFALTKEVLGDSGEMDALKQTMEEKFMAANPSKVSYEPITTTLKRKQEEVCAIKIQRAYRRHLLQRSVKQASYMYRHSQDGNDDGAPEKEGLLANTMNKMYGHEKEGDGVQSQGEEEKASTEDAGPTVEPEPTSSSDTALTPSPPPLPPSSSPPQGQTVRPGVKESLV
Chain of rNaV1.4 (Q00954 19-218, further chain): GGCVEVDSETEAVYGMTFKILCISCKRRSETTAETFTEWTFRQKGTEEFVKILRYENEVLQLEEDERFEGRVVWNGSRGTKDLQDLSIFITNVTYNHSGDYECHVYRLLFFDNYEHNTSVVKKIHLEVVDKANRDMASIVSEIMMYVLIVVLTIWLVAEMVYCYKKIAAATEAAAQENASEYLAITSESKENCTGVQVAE
Chain of rNaV1.2 (P04775 whole entry): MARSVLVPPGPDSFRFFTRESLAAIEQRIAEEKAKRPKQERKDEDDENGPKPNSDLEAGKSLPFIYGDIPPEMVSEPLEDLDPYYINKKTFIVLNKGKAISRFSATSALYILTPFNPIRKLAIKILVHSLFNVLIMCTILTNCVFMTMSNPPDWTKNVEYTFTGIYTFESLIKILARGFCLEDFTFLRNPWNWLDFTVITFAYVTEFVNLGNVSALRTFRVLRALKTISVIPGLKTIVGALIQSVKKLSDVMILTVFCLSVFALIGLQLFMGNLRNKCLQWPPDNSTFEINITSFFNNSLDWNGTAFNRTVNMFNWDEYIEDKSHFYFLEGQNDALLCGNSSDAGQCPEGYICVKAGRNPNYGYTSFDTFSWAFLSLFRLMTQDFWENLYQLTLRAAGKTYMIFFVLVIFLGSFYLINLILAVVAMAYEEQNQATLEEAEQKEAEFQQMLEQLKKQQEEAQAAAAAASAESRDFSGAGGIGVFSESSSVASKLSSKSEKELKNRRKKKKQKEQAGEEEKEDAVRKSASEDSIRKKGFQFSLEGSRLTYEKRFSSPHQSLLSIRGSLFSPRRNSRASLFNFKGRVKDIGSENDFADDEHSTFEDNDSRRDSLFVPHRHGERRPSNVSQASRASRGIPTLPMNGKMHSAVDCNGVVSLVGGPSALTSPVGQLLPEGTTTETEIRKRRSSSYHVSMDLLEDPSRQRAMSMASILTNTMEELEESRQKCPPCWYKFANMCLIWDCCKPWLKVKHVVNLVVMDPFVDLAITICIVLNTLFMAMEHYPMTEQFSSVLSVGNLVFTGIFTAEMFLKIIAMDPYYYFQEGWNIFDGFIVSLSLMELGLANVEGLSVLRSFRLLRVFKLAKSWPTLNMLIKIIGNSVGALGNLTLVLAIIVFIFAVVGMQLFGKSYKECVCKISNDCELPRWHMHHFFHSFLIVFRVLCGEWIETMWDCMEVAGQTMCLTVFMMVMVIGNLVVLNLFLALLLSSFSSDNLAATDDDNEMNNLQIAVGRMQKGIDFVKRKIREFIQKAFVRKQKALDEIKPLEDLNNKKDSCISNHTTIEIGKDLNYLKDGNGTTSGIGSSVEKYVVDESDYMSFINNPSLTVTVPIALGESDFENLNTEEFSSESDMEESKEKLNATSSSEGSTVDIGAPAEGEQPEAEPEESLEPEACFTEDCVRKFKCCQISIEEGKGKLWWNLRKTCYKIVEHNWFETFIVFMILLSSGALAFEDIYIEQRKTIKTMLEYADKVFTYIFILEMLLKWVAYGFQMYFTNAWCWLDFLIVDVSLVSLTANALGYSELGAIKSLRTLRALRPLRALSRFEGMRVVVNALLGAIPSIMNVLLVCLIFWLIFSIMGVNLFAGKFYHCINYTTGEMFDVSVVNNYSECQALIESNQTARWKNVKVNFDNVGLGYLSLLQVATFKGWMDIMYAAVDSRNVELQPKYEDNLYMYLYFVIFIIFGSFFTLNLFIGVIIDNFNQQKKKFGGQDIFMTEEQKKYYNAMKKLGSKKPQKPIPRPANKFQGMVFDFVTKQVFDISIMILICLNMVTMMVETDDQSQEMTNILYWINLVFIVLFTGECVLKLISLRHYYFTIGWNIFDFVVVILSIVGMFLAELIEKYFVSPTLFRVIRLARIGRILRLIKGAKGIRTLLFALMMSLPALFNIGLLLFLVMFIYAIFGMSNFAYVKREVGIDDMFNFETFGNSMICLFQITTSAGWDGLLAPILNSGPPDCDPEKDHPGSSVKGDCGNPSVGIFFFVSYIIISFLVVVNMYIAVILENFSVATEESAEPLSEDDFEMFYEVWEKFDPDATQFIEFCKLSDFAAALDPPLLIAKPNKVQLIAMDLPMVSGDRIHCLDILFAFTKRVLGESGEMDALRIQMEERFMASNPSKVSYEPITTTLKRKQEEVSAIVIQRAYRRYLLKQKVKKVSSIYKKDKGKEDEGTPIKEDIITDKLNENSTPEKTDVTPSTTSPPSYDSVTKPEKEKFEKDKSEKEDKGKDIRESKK
Chain of rNaV1.2 (Q00954 19-218, further chain): as the sequence (Q00954 19-218, further chain) above

Take `CC(=O)N[C@H]1CSSC[C@@H](C(=O)O)NC(=O)[C@H](CCCNC(=N)N)NC(=O)[C@H](CC(N)=O)NC(=O)[C@H](Cc2c[nH]c3ccccc23)NC(=O)[C@H](CCCNC(=N)N)NC(=O)[C@H](C)NC(=O)[C@H](Cc2c[nH]c3ccccc23)NC(=O)[C@H](CCCNC(=N)N)NC(=O)[C@H](CCCNC(=N)N)NC1=O` [PnCS1Ac, Ac-CRRWARWNRC] (Ac-CRRWARWNRC-OH; disulfide 1-10): the inhibition at 100 µM in assay [1], in assay [2], in assay [3], in assay [4] and in assay [5] was 0% each time.

In the case of `CC(=O)N[C@H]1CSSC[C@@H](C(N)=O)NC(=O)[C@H](CCCNC(=N)N)NC(=O)[C@H](CC(N)=O)NC(=O)[C@H](Cc2c[nH]c3ccccc23)NC(=O)[C@H](CCCNC(=N)N)NC(=O)[C@H](C)NC(=O)[C@H](Cc2c[nH]c3ccccc23)NC(=O)[C@H](CCCNC(=N)N)NC(=O)[C@H](CCCNC(=N)N)NC1=O` [PnCS1AcAm, Ac-CRRWARWNRC ^*] (Ac-CRRWARWNRC-NH2; disulfide 1-10), the IC50 in assay [1], in assay [2], in assay [3], in assay [4] and in assay [5] was above 100 µM throughout. Moreover, the inhibition at 100 µM in assay [1], in assay [2], in assay [3], in assay [4] and in assay [5] was 0% throughout.

Take `C[C@@H]1NC(=O)[C@H](Cc2c[nH]c3ccccc23)NC(=O)[C@H](CCCNC(=N)N)NC(=O)[C@H](CCCNC(=N)N)NC(=O)[C@@H](N)CSSC[C@@H](C(=O)O)NC(=O)[C@H](CCCNC(=N)N)NC(=O)[C@H](CC(N)=O)NC(=O)[C@H](Cc2c[nH]c3ccccc23)NC(=O)[C@H](CCCNC(=N)N)NC1=O` [PnCS1DeAm, CRRWARWNRC] (H-CRRWARWNRC-OH; disulfide 1-10): the 50% inhibitory concentration (IC50) in assay [1], in assay [2], in assay [3], in assay [4] and in assay [5] was above 100 µM in each case. Further, the inhibition at 100 µM came to 43% in assay [1]; 10% in assay [2]; 24% in assay [3]; 0% in assay [4]; 34% in assay [5].

Turning to `N=C(N)NCCC[C@@H]1NC(=O)[C@H](CC(N)=O)NC(=O)[C@H](Cc2c[nH]c3ccccc23)NC(=O)[C@H](CCCNC(=N)N)NC(=O)[C@H](CCC(=O)O)NC(=O)[C@H](Cc2c[nH]c3ccccc23)NC(=O)[C@H](CCCNC(=N)N)NC(=O)[C@H](CCCNC(=N)N)NC(=O)[C@@H](N)CSSC[C@@H](C(N)=O)NC1=O` [PnCS1[A5E], CRRWERWNRC ^*] (H-CRRWERWNRC-NH2; disulfide 1-10), the IC50 is above 100 µM in assay [1]; 8.8 ± 3.7 µM in assay [2]; 1.8 ± 0.5 µM in assay [3]; above 100 µM in assay [4]; 1.4 ± 0.2 µM in assay [5]. Also, the inhibition at 100 µM was 35% in assay [1]; 73% in assay [2]; 82% in assay [3]; 0% in assay [4]; 81% in assay [5].

As for `N=C(N)NCCC[C@@H]1NC(=O)[C@H](CC(N)=O)NC(=O)[C@H](Cc2c[nH]c3ccccc23)NC(=O)[C@H](CCCNC(=N)N)NC(=O)[C@H](CCCCN)NC(=O)[C@H](Cc2c[nH]c3ccccc23)NC(=O)[C@H](CCCNC(=N)N)NC(=O)[C@H](CCCNC(=N)N)NC(=O)[C@@H](N)CSSC[C@@H](C(N)=O)NC1=O` [PnCS1[A5K], CRRWKRWNRC ^*] (H-CRRWKRWNRC-NH2; disulfide 1-10), the IC50 in assay [1] was 1.9 ± 0.8 µM; in assay [2] it was 2.1 ± 0.2 µM; in assay [3] it was 0.7 ± 0.3 µM; in assay [4], above 100 µM; in assay [5] it was 1.2 ± 0.4 µM. Besides, the inhibition at 100 µM was 91% in assay [1]; 92% in assay [2]; 93% in assay [3]; 0% in assay [4]; 84% in assay [5].

On to `C[C@@H]1NC(=O)[C@H](Cc2c[nH]c3ccccc23)NC(=O)[C@H](CCCNC(=N)N)NC(=O)[C@H](C)NC(=O)[C@H](Cc2c[nH]c3ccccc23)NC(=O)[C@H](CCCNC(=N)N)NC(=O)[C@H](CCCNC(=N)N)NC(=O)[C@@H](N)CSSC[C@@H](C(N)=O)NC(=O)[C@H](CCCNC(=N)N)NC1=O` [PnCS1[N8A], CRRWARWARC ^*] (H-CRRWARWARC-NH2; disulfide 1-10), for which the IC50 in assay [1] is 0.9 ± 0.4 µM; in assay [2], 2.2 ± 0.7 µM; in assay [3], 0.8 ± 0.3 µM; in assay [4], above 100 µM; in assay [5], 0.9 ± 0.3 µM. For the same compound, the inhibition at 100 µM in assay [1] is 94%; in assay [2], 92%; in assay [3], 89%; in assay [4], 0%; in assay [5], above 95%. In addition, the “Maximum % inhibition NaV1.2” value in assay [5] (peptide at 100 μM, 100 µM) is 96%.

As to `C[C@@H]1NC(=O)[C@H](Cc2c[nH]c3ccccc23)NC(=O)[C@H](CCCNC(=N)N)NC(=O)[C@H](CCCNC(=N)N)NC(=O)[C@@H](N)CSSC[C@@H](C(N)=O)NC(=O)[C@H](CCCNC(=N)N)NC(=O)[C@H](CCC(=O)O)NC(=O)[C@H](Cc2c[nH]c3ccccc23)NC(=O)[C@H](CCCNC(=N)N)NC1=O` [PnCS1[N8E], CRRWARWERC ^*] (H-CRRWARWERC-NH2; disulfide 1-10), the IC50 in assay [1], in assay [2], in assay [3], in assay [4] and in assay [5] was above 100 µM in each case. Moreover, the inhibition at 100 µM was 53% in assay [1]; 44% in assay [2]; 27% in assay [3]; 0% in assay [4]; 47% in assay [5].

`C[C@@H]1NC(=O)[C@H](Cc2c[nH]c3ccccc23)NC(=O)[C@H](CCCNC(=N)N)NC(=O)[C@H](CCCNC(=N)N)NC(=O)[C@@H](N)CSSC[C@@H](C(N)=O)NC(=O)[C@H](CCCNC(=N)N)NC(=O)[C@H](CCCCN)NC(=O)[C@H](Cc2c[nH]c3ccccc23)NC(=O)[C@H](CCCNC(=N)N)NC1=O` [PnCS1[N8K], CRRWARWKRC ^*] (H-CRRWARWKRC-NH2; disulfide 1-10): the IC50 in assay [1] is 0.9 ± 0.3 µM; in assay [2], 2.8 ± 0.5 µM; in assay [3] it was 0.5 ± 0.2 µM; in assay [4], above 100 µM; in assay [5], 4.4 ± 0.8 µM. For the same compound, in assay [1], the “Maximum % inhibition NaV1.4” value turned out to be 96%. Besides, the inhibition at 100 µM in assay [1] was above 95%; in assay [2], 86%; in assay [3], 92%; in assay [4], 0%; in assay [5], 81%.

Turning to `C[C@@H]1NC(=O)[C@H](Cc2c[nH]c3ccccc23)NC(=O)[C@H](CCCNC(=N)N)NC(=O)[C@H](C)NC(=O)[C@@H](N)CSSC[C@@H](C(N)=O)NC(=O)[C@H](CCCNC(=N)N)NC(=O)[C@H](CC(N)=O)NC(=O)[C@H](Cc2c[nH]c3ccccc23)NC(=O)[C@H](CCCNC(=N)N)NC1=O` [PnCS1[R2A], CARWARWNRC ^*] (H-CARWARWNRC-NH2; disulfide 1-10), the IC50 in assay [1] is 1.4 ± 0.4 µM; in assay [2] it was 1.7 ± 0.7 µM; in assay [3], 1.6 ± 0.5 µM; in assay [4], above 100 µM; in assay [5] it was 2.9 ± 0.5 µM. Also, in assay [1], the “Maximum % inhibition NaV1.4” value was 96%. Moreover, the inhibition at 100 µM in assay [1] is above 95%; in assay [2], 68%; in assay [3], 71%; in assay [4], 0%; in assay [5], 84%.

Regarding `C[C@@H]1NC(=O)[C@H](Cc2c[nH]c3ccccc23)NC(=O)[C@H](CCCNC(=N)N)NC(=O)[C@H](CCC(=O)O)NC(=O)[C@@H](N)CSSC[C@@H](C(N)=O)NC(=O)[C@H](CCCNC(=N)N)NC(=O)[C@H](CC(N)=O)NC(=O)[C@H](Cc2c[nH]c3ccccc23)NC(=O)[C@H](CCCNC(=N)N)NC1=O` [PnCS1[R2E], CERWARWNRC ^*] (H-CERWARWNRC-NH2; disulfide 1-10), the IC50 in assay [1], in assay [2], in assay [3], in assay [4] and in assay [5] was above 100 µM throughout. The inhibition at 100 µM was 11% in assay [1]; 27% in assay [2]; 5% in assay [3]; 0% in assay [4]; 41% in assay [5].

On to `C[C@@H]1NC(=O)[C@H](Cc2c[nH]c3ccccc23)NC(=O)[C@H](CCCNC(=N)N)NC(=O)[C@H](CCCCN)NC(=O)[C@@H](N)CSSC[C@@H](C(N)=O)NC(=O)[C@H](CCCNC(=N)N)NC(=O)[C@H](CC(N)=O)NC(=O)[C@H](Cc2c[nH]c3ccccc23)NC(=O)[C@H](CCCNC(=N)N)NC1=O` [PnCS1[R2K], CKRWARWNRC ^*] (H-CKRWARWNRC-NH2; disulfide 1-10), for which the IC50 in assay [1] is 0.8 ± 0.3 µM; in assay [2], 2.5 ± 0.5 µM; in assay [3], 0.6 ± 0.2 µM; in assay [4], above 100 µM; in assay [5], 1.1 ± 0.5 µM. For the same compound, the inhibition at 100 µM in assay [1] was 93%; in assay [2], 82%; in assay [3], 85%; in assay [4], 0%; in assay [5] it was 92%.
